From ChEMBL document CHEMBL1139678, “Design and synthesis of novel N-sulfonyl-2-indole carboxamides as potent PPAR-gamma binding agents with potential application to the treatment of osteoporosis” (Bioorg Med Chem Lett, 2006)
≈ marks a conversion by molar mass, not a printed value. Calls of active or inactive are those of the source. No cut-off for these calls is given here.

Target: T1, Peroxisome proliferator-activated receptor gamma (Homo sapiens, UniProt P37231)
T1 sequence (P37231 whole entry): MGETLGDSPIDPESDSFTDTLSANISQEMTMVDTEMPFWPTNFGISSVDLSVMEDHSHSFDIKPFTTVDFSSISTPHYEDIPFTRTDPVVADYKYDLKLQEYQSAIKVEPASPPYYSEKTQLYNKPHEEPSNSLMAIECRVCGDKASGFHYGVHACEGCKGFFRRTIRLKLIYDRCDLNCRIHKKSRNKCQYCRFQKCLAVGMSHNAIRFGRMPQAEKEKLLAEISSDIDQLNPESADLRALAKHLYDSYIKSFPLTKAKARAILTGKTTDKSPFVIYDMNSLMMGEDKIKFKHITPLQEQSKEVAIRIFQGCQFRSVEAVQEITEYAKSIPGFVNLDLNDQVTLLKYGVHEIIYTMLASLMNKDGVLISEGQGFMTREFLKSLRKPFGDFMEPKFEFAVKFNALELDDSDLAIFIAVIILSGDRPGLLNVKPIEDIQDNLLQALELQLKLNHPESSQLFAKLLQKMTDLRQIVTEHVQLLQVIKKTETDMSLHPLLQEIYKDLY
Assay: Displacement of Fluormone from PPAR gamma
Details: not given

Row | IC50 [nM] | SMILES
1 | 770 | O=C(NS(=O)(=O)c1cccc(C(F)(F)F)c1)c1cc2cc(OCc3ccccc3)ccc2n1Cc1cccc(C(F)(F)F)c1
2 | 80 | O=C(NS(=O)(=O)c1cccc(C(F)(F)F)c1)c1cc2ccccc2n1Cc1cccc(C(F)(F)F)c1
3 | 7 | COc1ccc(-c2c(C(=O)NS(=O)(=O)c3ccc(F)cc3)n(Cc3cccc(C(F)(F)F)c3)c3ccccc23)cc1
4 | 290 | O=C(NS(=O)(=O)c1ccccc1)c1cc2ccccc2n1Cc1cccc(C(F)(F)F)c1
5 | 60 | COc1ccc(-c2c(C(=O)NS(=O)(=O)c3cccc(C(F)(F)F)c3)n(Cc3cccc(C(F)(F)F)c3)c3ccccc23)cc1
6 | 680 | CS(=O)(=O)NC(=O)c1cc2ccccc2n1Cc1cccc(C(F)(F)F)c1
7 | 380 | O=C(NS(=O)(=O)c1cccc(C(F)(F)F)c1)c1cc2ccccc2n1Cc1cc(Cl)ccc1Cl
8 | 540 | O=C(NS(=O)(=O)c1cccc(C(F)(F)F)c1)c1cc2cc(O)ccc2n1Cc1cccc(C(F)(F)F)c1
9 | 330 | O=C(NS(=O)(=O)c1cccc(C(F)(F)F)c1)c1cc2cc(Cl)ccc2n1Cc1cccc(C(F)(F)F)c1
10 | 140 | COc1cccc(Cn2c(C(=O)NS(=O)(=O)c3cccc(C(F)(F)F)c3)cc3ccccc32)c1
11 | 9400 | O=C(NS(=O)(=O)c1cccc(C(F)(F)F)c1)c1cc2ccccc2n1C(=O)c1cccc(C(F)(F)F)c1
12 | 280 | O=C(NS(=O)(=O)c1cccc(C(F)(F)F)c1)c1cc2ccccc2n1Cc1ccccc1
13 | 2 | COc1ccc(-c2c(C(=O)NS(C)(=O)=O)n(Cc3cccc(C(F)(F)F)c3)c3ccccc23)cc1
14 | 90 | O=C(NS(=O)(=O)c1cccc(C(F)(F)F)c1)c1cc2ccccc2n1Cc1cccc(OC(F)(F)F)c1
15 | 180 | Cc1ccccc1S(=O)(=O)NC(=O)c1cc2ccccc2n1Cc1cccc(C(F)(F)F)c1
16 | 400 | O=C(NS(=O)(=O)c1cccc(C(F)(F)F)c1)c1cc2ccccc2n1Cc1ccc(C(F)(F)F)cc1
17 | 2440 | CCn1c(C(=O)NS(=O)(=O)c2cccc(C(F)(F)F)c2)cc2ccccc21
18 | 330 | CC(C)(C)c1ccc(Cn2c(C(=O)NS(=O)(=O)c3cccc(C(F)(F)F)c3)cc3ccccc32)cc1
19 | 720 | O=C(NS(=O)(=O)c1ccc(F)cc1)c1cc2ccccc2n1Cc1cccc(C(F)(F)F)c1
20 | 7 | COc1ccc(-c2c(C(=O)NS(=O)(=O)c3ccccc3C)n(Cc3cccc(C(F)(F)F)c3)c3ccccc23)cc1
21 | 290 | Cc1ccc(S(=O)(=O)NC(=O)c2cc3ccccc3n2Cc2cccc(C(F)(F)F)c2)cc1

Row | SMILES | IC50 [nM]
22 | O=C(NS(=O)(=O)c1ccc(Cl)s1)c1cc2ccccc2n1Cc1cccc(C(F)(F)F)c1 | 80
23 | O=C(NS(=O)(=O)c1ccccc1C(F)(F)F)c1cc2ccccc2n1Cc1cccc(C(F)(F)F)c1 | 80
24 | O=C(NS(=O)(=O)c1cccc(C(F)(F)F)c1)c1cc2ccccc2n1Cc1cccc(OCc2ccccc2)c1 | 50
25 | O=C(NS(=O)(=O)c1ccc(Cl)cc1)c1cc2ccccc2n1Cc1cccc(C(F)(F)F)c1 | 280
26 | O=C(NS(=O)(=O)c1ccc2ccccc2c1)c1cc2ccccc2n1Cc1cccc(C(F)(F)F)c1 | 90
27 | COC(=O)c1ccccc1S(=O)(=O)NC(=O)c1c(-c2ccc(OC)cc2)c2ccccc2n1Cc1cccc(C(F)(F)F)c1 | 1

Tested on: Osteoblast
Assay: Induction of osteoblast differentiation assessed as stimulation of alkaline phosphatase in MC3T3-E1 cells
Type: functional, cell-based
Details: Mus musculus

Row | SMILES | EC50 [nM] | Activity
28 | O=C(NS(=O)(=O)c1ccc(Cl)cc1)c1cc2ccccc2n1Cc1cccc(C(F)(F)F)c1 | 1000 | –
29 | CN(CCOc1ccc(CC2SC(=O)NC2=O)cc1)c1ccccn1 (configuration not stated) | – | inactive
30 | COC(=O)c1ccccc1S(=O)(=O)NC(=O)c1c(-c2ccc(OC)cc2)c2ccccc2n1Cc1cccc(C(F)(F)F)c1 | 1000 | –
31 | COc1ccc(-c2c(C(=O)NS(=O)(=O)c3ccccc3)n(Cc3cccc(C(F)(F)F)c3)c3ccccc23)cc1 | 100 | –

Tested on: not listed separately
Assay: Solubility of the compound
Type: physicochemical
Details: not given

Row | SMILES | solubility [µg/mL]
32 | COc1ccc(-c2c(C(=O)NS(=O)(=O)c3ccccc3)n(Cc3cccc(C(F)(F)F)c3)c3ccccc23)cc1 | 5 (≈ 8.86 µM)
